Peptide text beside a SMILES is read from it.

The test has as its target T1, TGR26 (Rattus norvegicus, UniProt Q56UD9).
T1 construct: expressed in transfected cells; whole cells in A1, membrane fraction in A2 and A3
T1 sequence (Q56UD9 1-329): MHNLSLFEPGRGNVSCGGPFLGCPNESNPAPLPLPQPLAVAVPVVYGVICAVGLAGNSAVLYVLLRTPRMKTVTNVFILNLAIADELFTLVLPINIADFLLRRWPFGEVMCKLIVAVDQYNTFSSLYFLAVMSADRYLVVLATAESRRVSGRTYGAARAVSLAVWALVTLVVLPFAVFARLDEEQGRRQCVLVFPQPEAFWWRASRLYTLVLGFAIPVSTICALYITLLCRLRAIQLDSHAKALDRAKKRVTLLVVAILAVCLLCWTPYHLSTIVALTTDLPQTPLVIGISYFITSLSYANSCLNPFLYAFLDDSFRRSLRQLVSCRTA
Nature of the test: Receptor binding using [125I-Tyr10]-hGPR8L (1-23) and membrane fraction of TGR26 expressing CHO cells. The note with it: membrane fraction of TGR26 expressing CHO cells, [125I-Tyr10]-hGPR8L (1-23), method of Example 8. The protocol:
Using [^125I-Tyr^10]-hGPR8L (1-23) prepared by the method described in Reference Example 15 and a cell membrane fraction prepared from TGR26 expressing cells as described in Example 6, a receptor binding assay was carried out as follows.
Cell membrane fraction prepared from TGR26 expressing cells was diluted to various concentration with assay buffer (25 mM Tris-HCl, 5 mM EDTA, 0.05% CHAPS (3-[(3-Cholamidopropyl) Dimethyl-Ammonio]-1-Propanesulfonate), 0.1% BSA, 0.5 mM PMSF, 1 μg/ml Pepstatin, 20 μg/ml Leupeptin, 4 μg/ml E-64, pH 7.4), and 200 μl each of the diluent was dispensed into polypropilene test tube (Falcon 2053). In order to determine an amount of maximum binding, 2 μl of DMSO and 2 μl of 7 nM [^125I-Tyr^10]-hGPR8L (1-23) were added to the membrane fraction solution. Further, in order to determine a non-specific binding, 2 μl of 100 μM hGPR8L (1-23)/DMSO solution and 2 μl of 7 nM [^125I-Tyr^10]-hGPR8L (1-23) were added to the membrane fraction solution. The reaction was done at 25° C. for 75 minutes, and the reaction mixture was filtered by suction filtration using Whatman glassfilter (GF-F) treated with polyethyleneimine. In addition, the filter was washed twice with 1.5 ml of washing buffer (25 mM Tris-HCl, 5 mM EDTA, 0.05% CHAPS, 0.1% BSA, pH 7.4). After filtration, a radioactivity remaining on the filter was counted using γ-counter, and an amount of specific binding was estimated by subtracting an amount of non-specific binding from an amount of maximum binding.
Where the concentration of membrane fraction was set to 3 μg/ml, an inhibition for the specific binding of [125I-Tyr^10]-hGPR8L (1-23) to the membrane fraction of TGR26 expressing cells by hGPR8L (1-23) and hGPR8L (1-30) was investigated.
A receptor binding activity of human- and porcine-homologue derivatives of GPR8 ligand peptide obtained in the reference examples was measured using a membrane fraction of TGR26 expressing CHO cells and [^125I-Tyr^10]-hGPR8L (1-23) by the method described in Example 8. The receptor binding activity is represented by concentration of 50% inhibition for binding (IC50 value).

Take `CSCC[C@H](NC(=O)[C@H](CC(C)C)NC(=O)[C@H](CC(C)C)NC(=O)CNC(=O)[C@H](C)NC(=O)[C@H](C)NC(=O)[C@H](CCCNC(=N)N)NC(=O)CNC(=O)[C@@H](NC(=O)[C@@H](NC(=O)[C@H](Cc1c[nH]cn1)NC(=O)[C@H](Cc1ccc(O)cc1)NC(=O)[C@H](CCCNC(=N)N)NC(=O)[C@@H]1CCCN1C(=O)[C@H](CO)NC(=O)[C@H](C)NC(=O)[C@@H](NC(=O)[C@H](Cc1c[nH]cn1)NC(=O)[C@H](CCCCN)NC(=O)[C@H](Cc1ccc(O)cc1)NC(C)=O)C(C)C)[C@@H](C)O)C(C)C)C(=O)NCC(=O)N[C@@H](CC(C)C)C(=O)O` [Ac-hGPR8L (2-23), Ac-Tyr-Lys-His -Val-Ala-Ser-Pro-Arg-Tyr-His-Thr-Val-Gly-Arg-Ala-Ala-Gly-Leu-Leu-Met-Gly-Leu] (Ac-YKHVASPRYHTVGRAAGLLMGL-OH; C-terminus assumed): the IC50 came to 570 nM. This lies in the sub-micromolar range. For `CSCC[C@H](NC(=O)[C@H](CC(C)C)NC(=O)[C@H](CC(C)C)NC(=O)CNC(=O)[C@H](C)NC(=O)[C@H](C)NC(=O)[C@H](CCCNC(=N)N)NC(=O)CNC(=O)[C@@H](NC(=O)[C@@H](NC(=O)[C@H](Cc1c[nH]cn1)NC(=O)[C@H](Cc1ccc(O)cc1)NC(=O)[C@H](CCCNC(=N)N)NC(=O)[C@@H]1CCCN1C(=O)[C@H](CO)NC(=O)[C@H](C)NC(=O)[C@@H](NC(=O)[C@H](Cc1c[nH]cn1)NC(=O)[C@H](CCCCN)NC(=O)[C@H](Cc1ccc(O)cc1)NC(=O)[C@H](Cc1c[nH]c2ccccc12)NC(=O)OCC1c2ccccc2-c2ccccc21)C(C)C)[C@@H](C)O)C(C)C)C(=O)NCC(=O)N[C@@H](CC(C)C)C(=O)O` [Fmoc-hGPR8L (1-23)] the value was 0.23 nM; for `CSCC[C@H](NC(=O)[C@H](CC(C)C)NC(=O)[C@H](CC(C)C)NC(=O)CNC(=O)[C@H](C)NC(=O)[C@H](C)NC(=O)[C@H](CCCNC(=N)N)NC(=O)CNC(=O)[C@@H](NC(=O)[C@@H](NC(=O)[C@H](Cc1c[nH]cn1)NC(=O)[C@H](Cc1ccc(O)cc1)NC(=O)[C@H](CCCNC(=N)N)NC(=O)[C@@H]1CCCN1C(=O)[C@H](CO)NC(=O)[C@H](C)NC(=O)[C@@H](NC(=O)[C@H](Cc1c[nH]cn1)NC(=O)[C@H](CCCCN)NC(=O)[C@H](Cc1ccc(O)cc1)NC(=O)CCc1c[nH]c2ccccc12)C(C)C)[C@@H](C)O)C(C)C)C(=O)NCC(=O)N[C@@H](CC(C)C)C(=O)O` [IndPr-hGPR8L (2-23)] (HELM PEPTIDE1{[O=C(CCc1c[nH]c2ccccc12)[*:2]].Y.K.H.V.A.S.P.R.Y.H.T.V.G.R.A.A.G.L.L.M.G.L}$$$$V2.0; C-terminus assumed), 0.12 nM; for `CSCC[C@H](NC(=O)[C@H](CC(C)C)NC(=O)[C@H](CC(C)C)NC(=O)CNC(=O)[C@H](C)NC(=O)[C@H](C)NC(=O)[C@H](CCCNC(=N)N)NC(=O)CNC(=O)[C@@H](NC(=O)[C@@H](NC(=O)[C@H](Cc1c[nH]cn1)NC(=O)[C@H](Cc1ccc(O)cc1)NC(=O)[C@H](CCCNC(=N)N)NC(=O)[C@@H]1CCCN1C(=O)[C@H](CO)NC(=O)[C@H](C)NC(=O)[C@@H](NC(=O)[C@H](Cc1c[nH]cn1)NC(=O)[C@H](CCCCN)NC(=O)[C@H](Cc1ccc(O)cc1)NC(=O)[C@H](N)Cc1c[nH]c2ccccc12)C(C)C)[C@@H](C)O)C(C)C)C(=O)NCC(=O)N[C@@H](CC(C)C)C(=O)O` [[D-Trp^1]-hGPR8L (1-23), D-Trp-Tyr-Lys-His-Val -Ala-Ser-Pro-Arg-Tyr-His-Thr-Val-Gly-Arg-Ala-Ala-Gly-Leu-Leu-Met-Gly-Leu], 1.3 nM.

`CC(C)C[C@H](NC(=O)CNC(=O)[C@H](CC[S+](C)[O-])NC(=O)[C@H](CC(C)C)NC(=O)[C@H](CC(C)C)NC(=O)CNC(=O)[C@H](C)NC(=O)[C@H](C)NC(=O)[C@H](CCCNC(=N)N)NC(=O)CNC(=O)[C@@H](NC(=O)[C@@H](NC(=O)[C@H](Cc1c[nH]cn1)NC(=O)[C@H](Cc1ccc(O)cc1)NC(=O)[C@H](CCCNC(=N)N)NC(=O)[C@@H]1CCCN1C(=O)[C@H](CO)NC(=O)[C@H](C)NC(=O)[C@@H](NC(=O)[C@H](Cc1c[nH]cn1)NC(=O)[C@H](CCCCN)NC(=O)[C@H](Cc1ccc(O)cc1)NC(=O)[C@@H](N)Cc1c[nH]c2ccccc12)C(C)C)[C@@H](C)O)C(C)C)C(=O)O` (stereo partly drawn) [[Met(O)]-hGPR8L (1-23), Trp-Tyr-Lys-His-Val-Ala -Ser-Pro-Arg-Tyr-His-Thr-Val-Gly-Arg-Ala-Ala-Gly-Leu-Leu-Met(O)-Gly-Leu] showed an IC50 of 0.29 nM. As to `CC(C)[C@H](NC(=O)[C@H](Cc1c[nH]cn1)NC(=O)[C@H](CCCCN)NC(=O)[C@H](Cc1ccc(O)cc1)NC(=O)[C@@H](N)Cc1c[nH]c2ccccc12)C(=O)N[C@@H](C)C(=O)N[C@@H](CO)C(=O)N1CCC[C@H]1C(=O)N[C@@H](CCCNC(=N)N)C(=O)N[C@@H](Cc1ccc(O)cc1)C(=O)N[C@@H](Cc1c[nH]cn1)C(=O)N[C@H](C(=O)N[C@H](C(=O)NCC(=O)N[C@@H](CCCNC(=N)N)C(=O)N[C@@H](C)C(=O)N[C@@H](C)C(=O)NCC(=O)O)C(C)C)[C@@H](C)O` [hGPR8L (1-18), Trp-Tyr-Lys-His-Val-Ala-Ser -Pro-Arg-Tyr-His-Thr-Val-Gly-Arg-Ala-Ala-Gly] (H-WYKHVASPRYHTVGRAAG-OH; N-terminus and C-terminus assumed), the IC50 turned out to be 760 nM. Compared with the last compound, the IC50 is about 2600-fold higher. For `CC(C)C[C@H](NC(=O)CNC(=O)[C@H](C)NC(=O)[C@H](C)NC(=O)[C@H](CCCNC(=N)N)NC(=O)CNC(=O)[C@@H](NC(=O)[C@@H](NC(=O)[C@H](Cc1c[nH]cn1)NC(=O)[C@H](Cc1ccc(O)cc1)NC(=O)[C@H](CCCNC(=N)N)NC(=O)[C@@H]1CCCN1C(=O)[C@H](CO)NC(=O)[C@H](C)NC(=O)[C@@H](NC(=O)[C@H](Cc1c[nH]cn1)NC(=O)[C@H](CCCCN)NC(=O)[C@H](Cc1ccc(O)cc1)NC(=O)[C@@H](N)Cc1c[nH]c2ccccc12)C(C)C)[C@@H](C)O)C(C)C)C(=O)O` [hGPR8L (1-19), Trp-Tyr-Lys-His-Val-Ala-Ser -Pro-Arg-Tyr-His-Thr-Val-Gly-Arg-Ala-Ala-Gly-Leu] (H-WYKHVASPRYHTVGRAAGL-OH; N-terminus and C-terminus assumed) the value was 9.9 nM. For `CC(C)C[C@H](NC(=O)[C@H](CC(C)C)NC(=O)CNC(=O)[C@H](C)NC(=O)[C@H](C)NC(=O)[C@H](CCCNC(=N)N)NC(=O)CNC(=O)[C@@H](NC(=O)[C@@H](NC(=O)[C@H](Cc1c[nH]cn1)NC(=O)[C@H](Cc1ccc(O)cc1)NC(=O)[C@H](CCCNC(=N)N)NC(=O)[C@@H]1CCCN1C(=O)[C@H](CO)NC(=O)[C@H](C)NC(=O)[C@@H](NC(=O)[C@H](Cc1c[nH]cn1)NC(=O)[C@H](CCCCN)NC(=O)[C@H](Cc1ccc(O)cc1)NC(=O)[C@@H](N)Cc1c[nH]c2ccccc12)C(C)C)[C@@H](C)O)C(C)C)C(=O)O` [hGPR8L (1-20), Trp-Tyr-Lys-His-Val-Ala-Ser -Pro-Arg-Tyr-His-Thr-Val-Gly-Arg-Ala-Ala-Gly-Leu-Leu] (H-WYKHVASPRYHTVGRAAGLL-OH; N-terminus and C-terminus assumed) the value was 0.17 nM.

By IC50 is commonly meant the concentration that inhibits the measured activity by half. A low value points to greater potency.

The values are drawn from US20040029178A1, “Novel g protein-coupled receptor proteins and dnas thereof” (priority 2000, published 2004).
